# Test results from ChEMBL document CHEMBL5325467, “Discovery of novel hypoxia-activated, nitroimidazole constructed multi-target kinase inhibitors on the basis of AZD9291 for the treatment of human lung cancer” (Bioorg Med Chem, 2023).
# Key:
# [1] = target: Epidermal growth factor receptor (Homo sapiens, UniProt P00533, L858R/T790M); assay: Inhibition of EGFR L858R/T790M mutant (unknown origin) by mobility shift assay
# [2] = target: Cyclin-dependent kinase 4/cyclin D1 (Homo sapiens) (UniProt P11802+P24385); assay: Inhibition of CDK4/CyclinD1 (unknown origin) at 1 uM relative to control; assay type: protein-complex assay
# [3] = target: Vascular endothelial growth factor receptor 2 (Homo sapiens) (UniProt P35968); assay: Inhibition of KDR (unknown origin) at 1 uM relative to control
# [4] = target: Mast/stem cell growth factor receptor Kit (Homo sapiens) (UniProt P10721); assay: Inhibition of KIT (unknown origin) at 1 uM relative to control
# [5] = target: Receptor tyrosine-protein kinase erbB-2 (Homo sapiens) (UniProt P04626); assay: Inhibition of HER2 (unknown origin) at 1 uM relative to control
# [6] = target: Mitogen-activated protein kinase 10 (Homo sapiens) (UniProt P53779); assay: Inhibition of JNK3 (unknown origin) at 1 uM relative to control
# [7] = target: T1, Proto-oncogene tyrosine-protein kinase ROS (Homo sapiens, UniProt P08922); assay: Inhibition of ROS1 (unknown origin)
# [8] = system: Epidermal growth factor receptor (Homo sapiens), P00533 [L858R,T790M,C797S]; assay: Inhibition of EGFR L858R/T790M/C797S triple mutant (unknown origin) at 1 uM relative to control
# [9] = target: High affinity nerve growth factor receptor (Homo sapiens) (UniProt P04629); assay: Inhibition of TRKA (unknown origin) at 1 uM relative to control
# HCC827 [10] = assay: Antiproliferative activity against human HCC827 cells harboring EGFR del19 mutant assessed as inhibition of cell growth incubated for 72 hrs under normoxia condition by SRB assay; assay type: functional, cell-based; details: HCC827, 72 h
# [11] = target: T2, Platelet-derived growth factor receptor alpha (Homo sapiens, UniProt P16234); assay: Inhibition of PDGFRalpha (unknown origin)
# [12] = target: Tyrosine-protein kinase receptor UFO (Homo sapiens) (UniProt P30530); assay: Inhibition of AXL (unknown origin) at 1 uM relative to control
# [13] = target: Tyrosine-protein kinase JAK3 (Homo sapiens) (UniProt P52333); assay: Inhibition of JAK3 (unknown origin) at 1 uM relative to control
# [14] = target: MAP kinase-activated protein kinase 2 (Homo sapiens) (UniProt P49137); assay: Inhibition of MAPKAPK2 (unknown origin) at 1 uM relative to control
# [15] = target: Focal adhesion kinase 1 (Homo sapiens) (UniProt Q05397); assay: Inhibition of FAK (unknown origin) at 1 uM relative to control
# [16] = target: Receptor-type tyrosine-protein kinase FLT3 (Homo sapiens) (UniProt P36888); assay: Inhibition of FLT3 (unknown origin) at 1 uM relative to control
# NCI-H1975 [17] = assay: Antiproliferative activity against human NCI-H1975 cells harboring EGFR L858R/T790M mutant assessed as inhibition of cell growth incubated for 72 hrs under normoxia condition by SRB assay; assay type: functional, cell-based; details: NCI-H1975, 72 h
# [18] = target: Fibroblast growth factor receptor 1 (Homo sapiens) (UniProt P11362); assay: Inhibition of FGFR1 (unknown origin) at 1 uM relative to control
# [19] = target: Receptor-type tyrosine-protein kinase FLT3 (Homo sapiens, UniProt P36888); assay: Inhibition of FLT3 (unknown origin)
# [20] = Reductive activation in PBS at pH 7.4 assessed as A14-1 metabolite formation at 1 uM incubated for 30 mins in presence of cysteine, NADPH and nitroreductase under hypoxia condition by MS/MS analysis; assay type: ADME; details: buffer, pH 7.4, 0.5 h
# [21] = (§1) Reductive activation in PBS at pH 7.4 assessed as 2-amino-3-[2-amino-5-[amino(carboxy)methyl]sulfanyl-1-[2-[2-[2-methoxy-5-[[4-(1-methylindol-3-yl)pyrimidin-2-yl]amino]phenoxy]ethoxy]ethyl]imidazol-4-yl]sulfanyl-propanoic acid metabolite formation at 1 uM incubated for 30 mins in presence of cysteine, NADPH and nitroreductase under N2 condition by MS/MS analysis; assay type: ADME; details: buffer, pH 7.4, 0.5 h
# [22] = target: Tyrosine-protein kinase BTK (Homo sapiens) (UniProt Q06187); assay: Inhibition of BTK (unknown origin) at 1 uM relative to control
# [23] = Ratio of IC50 for antiproliferative activity against human HCC827 cells harboring EGFR del19 mutant under normoxia condition to IC50 for antiproliferative activity against human HCC827 cells harboring EGFR del19 mutant under hypoxia condition; assay type: functional
# [24] = target: Tyrosine-protein kinase SYK (Homo sapiens) (UniProt P43405); assay: Inhibition of SYK (unknown origin) at 1 uM relative to control
# [25] = as §1, with “hypoxia” for “N2”; assay type: ADME; details: buffer, pH 7.4, 0.5 h
# [26] = target: T1, Proto-oncogene tyrosine-protein kinase ROS; assay: Inhibition of ROS1 (unknown origin) at 1 uM relative to control
# NCI-H1975 [27] = assay: Antiproliferative activity against human NCI-H1975 cells harboring EGFR L858R/T790M mutant assessed as inhibition of cell growth incubated for 72 hrs under hypoxia condition by SRB assay; assay type: functional, cell-based; details: NCI-H1975, 72 h
# [28] = target: Tyrosine-protein kinase ITK/TSK (Homo sapiens) (UniProt Q08881); assay: Inhibition of ITK (unknown origin) at 1 uM relative to control
# [29] = target: Hepatocyte growth factor receptor (Homo sapiens) (UniProt P08581); assay: Inhibition of MET (unknown origin) at 1 uM relative to control
# [30] = target: T3, Tyrosine-protein kinase JAK2 (Homo sapiens, UniProt O60674); assay: Inhibition of JAK2 (unknown origin)
# T3 sequence (O60674 whole entry): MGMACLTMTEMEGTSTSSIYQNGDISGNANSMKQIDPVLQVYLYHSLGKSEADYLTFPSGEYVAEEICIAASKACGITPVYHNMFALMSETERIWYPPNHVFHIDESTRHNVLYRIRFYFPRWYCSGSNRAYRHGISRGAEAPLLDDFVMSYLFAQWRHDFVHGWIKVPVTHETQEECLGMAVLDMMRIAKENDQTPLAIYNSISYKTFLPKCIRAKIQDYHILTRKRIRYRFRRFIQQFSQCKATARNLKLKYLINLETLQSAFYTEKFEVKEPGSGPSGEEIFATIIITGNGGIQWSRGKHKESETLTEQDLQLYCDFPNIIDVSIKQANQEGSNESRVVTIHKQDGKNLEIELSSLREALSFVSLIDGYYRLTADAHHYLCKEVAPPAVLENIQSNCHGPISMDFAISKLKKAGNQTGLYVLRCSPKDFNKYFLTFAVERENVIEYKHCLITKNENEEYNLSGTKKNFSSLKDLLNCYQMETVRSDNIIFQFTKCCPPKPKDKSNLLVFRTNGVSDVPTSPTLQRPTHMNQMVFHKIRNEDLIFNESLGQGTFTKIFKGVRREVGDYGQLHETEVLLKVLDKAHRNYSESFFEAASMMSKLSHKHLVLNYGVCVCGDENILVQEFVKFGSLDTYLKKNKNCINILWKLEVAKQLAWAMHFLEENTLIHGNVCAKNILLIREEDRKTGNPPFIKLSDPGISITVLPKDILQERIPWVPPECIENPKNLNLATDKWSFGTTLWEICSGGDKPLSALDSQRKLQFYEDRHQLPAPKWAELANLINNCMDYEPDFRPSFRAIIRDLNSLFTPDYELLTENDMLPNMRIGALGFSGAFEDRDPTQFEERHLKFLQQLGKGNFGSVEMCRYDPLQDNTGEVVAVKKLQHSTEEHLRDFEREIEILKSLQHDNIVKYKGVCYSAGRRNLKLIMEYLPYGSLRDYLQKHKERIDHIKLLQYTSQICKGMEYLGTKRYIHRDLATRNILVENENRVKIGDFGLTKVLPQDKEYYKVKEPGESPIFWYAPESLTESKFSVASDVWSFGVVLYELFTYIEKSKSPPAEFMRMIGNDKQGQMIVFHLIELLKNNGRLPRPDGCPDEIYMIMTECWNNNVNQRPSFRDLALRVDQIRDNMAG
# [31] = target: Mitogen-activated protein kinase 1 (Homo sapiens) (UniProt P28482); assay: Inhibition of ERK2 (unknown origin) at 1 uM relative to control
# [32] = target: T4, Vascular endothelial growth factor receptor 3 (Homo sapiens, UniProt P35916); assay: Inhibition of FLT4 (unknown origin) at 1 uM relative to control
# T4 sequence (P35916 whole entry): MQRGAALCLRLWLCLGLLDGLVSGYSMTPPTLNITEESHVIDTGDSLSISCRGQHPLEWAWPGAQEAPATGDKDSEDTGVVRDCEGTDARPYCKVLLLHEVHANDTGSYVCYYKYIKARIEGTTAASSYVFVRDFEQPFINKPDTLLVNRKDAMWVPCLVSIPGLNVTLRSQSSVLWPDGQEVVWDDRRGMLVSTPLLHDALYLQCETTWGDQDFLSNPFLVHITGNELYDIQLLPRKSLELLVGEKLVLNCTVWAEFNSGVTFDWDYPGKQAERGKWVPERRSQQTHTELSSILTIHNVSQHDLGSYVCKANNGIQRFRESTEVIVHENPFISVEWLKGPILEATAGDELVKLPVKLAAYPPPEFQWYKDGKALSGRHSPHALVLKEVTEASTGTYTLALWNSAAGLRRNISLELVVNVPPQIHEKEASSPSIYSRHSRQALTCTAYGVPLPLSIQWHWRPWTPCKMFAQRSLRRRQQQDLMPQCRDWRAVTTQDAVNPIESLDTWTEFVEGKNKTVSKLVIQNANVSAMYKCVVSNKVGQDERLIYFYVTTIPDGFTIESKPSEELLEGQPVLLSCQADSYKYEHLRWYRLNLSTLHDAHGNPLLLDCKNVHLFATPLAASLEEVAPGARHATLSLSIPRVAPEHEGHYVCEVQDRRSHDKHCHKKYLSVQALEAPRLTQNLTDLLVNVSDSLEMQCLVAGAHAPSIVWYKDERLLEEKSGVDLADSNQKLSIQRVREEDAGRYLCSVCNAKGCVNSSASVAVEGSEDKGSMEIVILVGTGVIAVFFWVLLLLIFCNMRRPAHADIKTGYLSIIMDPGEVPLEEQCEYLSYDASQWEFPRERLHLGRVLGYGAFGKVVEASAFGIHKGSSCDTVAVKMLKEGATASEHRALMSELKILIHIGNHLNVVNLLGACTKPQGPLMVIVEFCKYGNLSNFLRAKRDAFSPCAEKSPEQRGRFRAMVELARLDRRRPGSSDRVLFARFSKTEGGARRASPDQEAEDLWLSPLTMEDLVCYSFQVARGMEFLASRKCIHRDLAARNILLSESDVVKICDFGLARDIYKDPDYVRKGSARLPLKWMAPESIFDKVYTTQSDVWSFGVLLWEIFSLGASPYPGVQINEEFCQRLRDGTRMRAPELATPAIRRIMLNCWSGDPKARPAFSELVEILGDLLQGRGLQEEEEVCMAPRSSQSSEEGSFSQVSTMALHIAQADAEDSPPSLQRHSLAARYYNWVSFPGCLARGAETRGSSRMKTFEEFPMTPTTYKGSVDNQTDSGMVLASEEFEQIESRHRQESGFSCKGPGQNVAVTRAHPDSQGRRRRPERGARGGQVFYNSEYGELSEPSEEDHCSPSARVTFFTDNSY
# [33] = as §1, with “normoxia” for “N2”; assay type: ADME; details: buffer, pH 7.4, 0.5 h
# [34] = target: T5, Epidermal growth factor receptor (Homo sapiens, UniProt P00533); assay: Inhibition of wild type EGFR (unknown origin) by mobility shift assay
# T5 sequence (P00533 whole entry): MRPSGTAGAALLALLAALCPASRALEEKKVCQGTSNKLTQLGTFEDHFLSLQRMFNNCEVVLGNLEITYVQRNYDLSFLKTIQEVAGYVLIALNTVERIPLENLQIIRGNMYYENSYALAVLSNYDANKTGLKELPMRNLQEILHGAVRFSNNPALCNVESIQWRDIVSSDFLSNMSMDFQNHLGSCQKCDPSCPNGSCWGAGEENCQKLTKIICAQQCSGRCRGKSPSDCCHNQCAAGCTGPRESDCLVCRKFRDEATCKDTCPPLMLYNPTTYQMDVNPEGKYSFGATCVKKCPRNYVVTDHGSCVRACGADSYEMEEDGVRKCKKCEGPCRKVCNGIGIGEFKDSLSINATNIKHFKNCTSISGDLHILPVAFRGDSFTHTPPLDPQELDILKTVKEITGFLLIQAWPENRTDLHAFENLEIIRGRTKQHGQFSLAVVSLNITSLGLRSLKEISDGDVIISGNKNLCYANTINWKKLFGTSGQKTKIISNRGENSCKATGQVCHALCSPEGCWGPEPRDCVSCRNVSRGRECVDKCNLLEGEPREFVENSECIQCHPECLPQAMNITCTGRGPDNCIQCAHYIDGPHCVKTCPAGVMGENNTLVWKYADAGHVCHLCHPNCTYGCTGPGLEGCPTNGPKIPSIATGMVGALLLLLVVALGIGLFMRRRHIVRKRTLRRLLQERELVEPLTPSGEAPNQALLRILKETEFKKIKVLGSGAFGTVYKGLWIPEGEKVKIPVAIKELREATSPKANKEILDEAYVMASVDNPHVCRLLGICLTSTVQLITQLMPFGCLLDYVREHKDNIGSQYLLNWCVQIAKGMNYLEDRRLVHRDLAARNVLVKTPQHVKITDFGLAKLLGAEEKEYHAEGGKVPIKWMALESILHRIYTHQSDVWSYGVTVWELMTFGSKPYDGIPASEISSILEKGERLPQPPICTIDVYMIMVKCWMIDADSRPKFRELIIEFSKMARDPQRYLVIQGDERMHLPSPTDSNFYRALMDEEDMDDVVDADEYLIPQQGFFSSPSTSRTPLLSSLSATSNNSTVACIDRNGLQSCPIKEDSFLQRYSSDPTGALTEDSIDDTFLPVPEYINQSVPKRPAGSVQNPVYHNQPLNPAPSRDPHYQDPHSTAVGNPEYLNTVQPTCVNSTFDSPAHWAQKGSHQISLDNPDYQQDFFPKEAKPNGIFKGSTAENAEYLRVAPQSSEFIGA
# [35] = target: T3, Tyrosine-protein kinase JAK2; assay: Inhibition of JAK2 (unknown origin) at 1 uM relative to control
# [36] = target: Proto-oncogene tyrosine-protein kinase receptor Ret (Homo sapiens) (UniProt P07949); assay: Inhibition of RET (unknown origin) at 1 uM relative to control
# [37] = target: T4, Vascular endothelial growth factor receptor 3; assay: Inhibition of FLT4 (unknown origin)
# HCC827 [38] = assay: Antiproliferative activity against human HCC827 cells harboring EGFR del19 mutant assessed as inhibition of cell growth incubated for 72 hrs under hypoxia condition by SRB assay; assay type: functional, cell-based; details: HCC827, 72 h
# [39] = target: Proto-oncogene tyrosine-protein kinase Src (Homo sapiens) (UniProt P12931); assay: Inhibition of SRC (unknown origin) at 1 uM relative to control
# [40] = target: RAC-alpha serine/threonine-protein kinase (Homo sapiens) (UniProt P31749); assay: Inhibition of AKT1 (unknown origin) at 1 uM relative to control
# [41] = Reductive activation in PBS at pH 7.4 assessed as A14-1 metabolite formation at 1 uM incubated for 30 mins in presence of cysteine, NADPH and nitroreductase under N2 condition by MS/MS analysis; assay type: ADME; details: buffer, pH 7.4, 0.5 h
# [42] = system: Serine/threonine-protein kinase B-raf (Homo sapiens), P15056 [V600E]; assay: Inhibition of BRAF V600E mutant (unknown origin) at 1 uM relative to control
# Homo sapiens = species on record: Homo sapiens; assay: Inhibition of ABL (unknown origin) at 1 uM relative to control
# [43] = Reductive activation in PBS at pH 7.4 assessed as hydroxylamine intermediate formation at 1 uM incubated for 30 mins in presence of cysteine, NADPH and nitroreductase under hypoxia condition by MS/MS analysis; details: buffer, pH 7.4, 0.5 h
# [44] = Reductive activation in PBS at pH 7.4 assessed as A14-1 metabolite formation at 1 uM incubated for 30 mins in presence of cysteine, NADPH and nitroreductase under normoxia condition by MS/MS analysis; assay type: ADME; details: buffer, pH 7.4, 0.5 h
# [45] = target: 3-phosphoinositide-dependent protein kinase 1 (Homo sapiens) (UniProt O15530); assay: Inhibition of PDK1 (unknown origin) at 1 uM relative to control
# [46] = target: T2, Platelet-derived growth factor receptor alpha; assay: Inhibition of PDGFRalpha (unknown origin) at 1 uM relative to control
# [47] = target: ALK tyrosine kinase receptor (Homo sapiens) (UniProt Q9UM73); assay: Inhibition of ALK (unknown origin) at 1 uM relative to control
# [48] = Ratio of IC50 for antiproliferative activity against human NCI-H1975 cells harboring EGFR L858R/T790M mutant under normoxia condition to IC50 for antiproliferative activity against human NCI-H1975 cells harboring EGFR L858R/T790M mutant under hypoxia condition; assay type: functional
# [49] = target: T5, Epidermal growth factor receptor; assay: Inhibition of EGFR (unknown origin) at 1 uM relative to control
# [50] = Selectivity index, ratio of IC50 for inhibition of wild type EGFR (unknown origin) to IC50 for inhibition of EGFR L858R/T790M mutant (unknown origin)
# Epidermal growth factor receptor (Homo sapiens, UniProt P00533, L858R/T790M), sequence (P00533 25-1210 T790M/L858R limits assumed): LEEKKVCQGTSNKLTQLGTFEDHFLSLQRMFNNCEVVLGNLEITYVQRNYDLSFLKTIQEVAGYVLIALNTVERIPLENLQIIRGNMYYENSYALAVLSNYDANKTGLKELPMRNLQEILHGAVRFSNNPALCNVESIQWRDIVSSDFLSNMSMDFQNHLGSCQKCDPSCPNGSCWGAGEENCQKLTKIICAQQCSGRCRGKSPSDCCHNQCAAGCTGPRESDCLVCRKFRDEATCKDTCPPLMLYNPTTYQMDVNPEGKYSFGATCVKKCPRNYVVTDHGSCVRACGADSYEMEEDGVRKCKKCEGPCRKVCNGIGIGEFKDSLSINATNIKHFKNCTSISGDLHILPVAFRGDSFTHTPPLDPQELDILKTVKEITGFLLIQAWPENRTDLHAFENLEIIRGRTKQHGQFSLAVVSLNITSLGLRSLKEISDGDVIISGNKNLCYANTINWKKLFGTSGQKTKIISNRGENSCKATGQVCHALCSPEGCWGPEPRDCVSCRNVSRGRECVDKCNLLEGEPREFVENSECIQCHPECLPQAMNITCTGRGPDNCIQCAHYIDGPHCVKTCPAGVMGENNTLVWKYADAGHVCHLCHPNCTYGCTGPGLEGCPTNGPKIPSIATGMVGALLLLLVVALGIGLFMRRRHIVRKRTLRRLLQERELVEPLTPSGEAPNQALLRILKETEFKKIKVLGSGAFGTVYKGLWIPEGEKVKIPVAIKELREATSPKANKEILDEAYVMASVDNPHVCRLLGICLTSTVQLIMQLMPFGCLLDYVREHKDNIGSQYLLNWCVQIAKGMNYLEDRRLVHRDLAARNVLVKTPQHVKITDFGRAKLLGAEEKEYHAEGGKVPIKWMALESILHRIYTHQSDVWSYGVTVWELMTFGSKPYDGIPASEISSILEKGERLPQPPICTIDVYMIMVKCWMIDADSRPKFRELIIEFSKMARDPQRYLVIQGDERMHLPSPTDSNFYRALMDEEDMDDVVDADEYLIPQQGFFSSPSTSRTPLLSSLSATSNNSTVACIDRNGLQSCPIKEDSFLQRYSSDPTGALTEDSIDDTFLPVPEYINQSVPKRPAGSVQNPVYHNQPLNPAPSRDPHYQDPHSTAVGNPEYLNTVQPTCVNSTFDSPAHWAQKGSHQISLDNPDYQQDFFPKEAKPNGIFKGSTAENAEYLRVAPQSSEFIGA
smiles,measurement,setting,value
Cn1cc(-c2ccnc(Nc3ccc(Cl)c(OCCOCCn4ccnc4[N+](=O)[O-])c3)n2)c2ccccc21,IC50,[1],2670 nM
Cn1cc(-c2ccnc(Nc3ccc(OCCCCn4ccnc4[N+](=O)[O-])cc3)n2)c2ccccc21,IC50,[1],1180 nM
COc1ccc(Nc2nccc(-c3cn(C)c4ccccc34)n2)cc1OCCOCCn1ccnc1[N+](=O)[O-],inhibition,[2],8.02%
same,inhibition,[3],50%
same,inhibition,[4],38.1%
same,inhibition,[5],11.8%
same,inhibition,[6],62.7%
same,IC50,[7],107 nM
same,inhibition,[8],50.9%
same,inhibition,[9],29%
same,IC50,HCC827 [10],25 nM
same,IC50,[11],42.5 nM
same,inhibition,[12],44.3%
same,inhibition,[13],43.2%
same,inhibition,[14],17.4%
same,inhibition,[15],9%
same,inhibition,[16],90.5%
same,IC50,NCI-H1975 [17],26.2 nM
same,inhibition,[18],-7.07%
same,IC50,[19],108 nM
same,Drug metabolism,[20],Metabolite_Detected
same,Drug metabolism,[21],Metabolite_Detected
same,inhibition,[22],27.4%
same,Ratio IC50,[23],4.75
same,inhibition,[24],17%
same,Drug metabolism,[25],Metabolite_Detected
same,inhibition,[26],84.7%
same,IC50,NCI-H1975 [27],4.66 nM
same,inhibition,[28],27.9%
same,inhibition,[29],26.6%
same,IC50,[30],30.9 nM
same,inhibition,[31],32.4%
same,inhibition,[32],85.7%
same,Drug metabolism,[33],Metabolite_Notdetected
same,IC50,[34],1570 nM
same,inhibition,[35],79.2%
same,inhibition,[36],-0.41%
same,IC50,[37],227 nM
same,IC50,HCC827 [38],5.26 nM
same,inhibition,[39],36.5%
same,inhibition,[40],11.5%
same,Drug metabolism,[41],Metabolite_Detected
same,inhibition,[42],65.4%
same,inhibition,Homo sapiens,23.9%
same,Drug metabolism,[43],Metabolite_Detected
same,Drug metabolism,[44],Metabolite_Notdetected
same,inhibition,[45],8%
same,inhibition,[46],88.2%
same,inhibition,[47],42.7%
same,Ratio IC50,[48],5.63
same,IC50,[1],177 nM
same,inhibition,[49],34.8%
Cn1cc(-c2ccnc(Nc3ccc(OCCOCCn4ccnc4[N+](=O)[O-])c(F)c3)n2)c2ccccc21,IC50,[34],> 10000 nM
same,Ratio IC50,[50],> 13.8
same,IC50,[1],722 nM
Cn1cc(-c2ccnc(Nc3cccc(COCCOCCn4ccnc4[N+](=O)[O-])c3)n2)c2ccccc21,IC50,[1],4030 nM
Cn1cc(-c2ccnc(Nc3ccc(OCCCCn4cnc([N+](=O)[O-])c4)c(F)c3)n2)c2ccccc21,IC50,[1],829 nM
Cn1cc(-c2ccnc(Nc3cc(OCCOCCn4ccnc4[N+](=O)[O-])ccc3F)n2)c2ccccc21,IC50,HCC827 [10],32.1 nM
same,IC50,NCI-H1975 [17],31 nM
same,Ratio IC50,[23],5.11
same,IC50,NCI-H1975 [27],7.59 nM
same,IC50,[34],7660 nM
same,IC50,HCC827 [38],6.28 nM
same,Ratio IC50,[48],4.08
same,IC50,[1],199 nM
C=CC(=O)Nc1cc(Nc2nccc(-c3cn(C)c4ccccc34)n2)c(OC)cc1N(C)CCN(C)C [OSIMERTINIB],IC50,HCC827 [10],33.7 nM
same,IC50,HCC827 [38],32.3 nM
